Legend:
A431 cells (WT) = assay: A431 inhibition assay (cell proliferation), Method B; format: cell-based, human; details: Homo sapiens, A-431, 72 h, cellular proliferation, several runs
Experimental: (§1) Cell Proliferation Assays—Method B
A431 Inhibition Assay, (Cell Proliferation).
The rest procedure was conducted in the same manner as described above for H1975 cells.

PC9 cells (SM) = assay: PC-9 growth inhibition assay (cell proliferation), Method B; format: cell-based, human; details: Homo sapiens, PC-9, 72 h, cellular proliferation, several runs
Experimental: as §1
(§2) Test compounds were dissolved in DMSO at 30 mM.
(§3) The final concentration was 1,000 cells/well. Add medium only as low control. […] 5% CO2 incubator for 72 hours.
(§4) After 72 hours incubation, remove the plates from incubator and equilibrate at room temperature for 15 minutes. Incubate the CellTiter Glo reagents (Promega, G9243) at 37° C. before the experiment. The buffer was equilibrated to room temperature and used to dissolve the substrate. To determine the cell viability, add 40 μL of CellTiter-Glo reagent into each well to be detected (at 1:1 to culture medium). Then the place the plates at room temperature for 30 min followed by read on EnSpire (PerkinElmer).
(§5) For estimation of IC50, the luminescence readout are transformed to % Inhibition by applying the following equation: The IC50 was then
(§6) [formula] calculated by fitting in XLFit to a four parameters logistic curve.
PC-9 Growth Inhibition Assay (Cell Proliferation).
The inhibition assay of PC-9 cells was conducted in the same manner as described above for H1975 cells.

H1975 cells (DM) = assay: H1975 inhibition assay (cell proliferation), Method B; format: cell-based; details: Homo sapiens, NCI-H1975, 72 h, cellular proliferation, several runs
Experimental: as §1
H1975 Inhibition Assay (Cell Proliferation).
as §2, §3, §4, §5, §6

Structure (SMILES)	IC50 (A431 cells (WT))	IC50 (PC9 cells (SM))	IC50 (H1975 cells (DM))
C=CC(=O)Nc1cc(Nc2nccc(-n3nc(NC(C)=O)c4ccccc43)n2)c(OC)cc1N(C)CCN(C)C [Example 53, N-(5-(4-(3-Acetamido-1H-indazol-1-yl)pyrimidin-2-ylamino)-2-((2-(dimethylamino)ethyl)(methyl)amino)-4-methoxyphenyl) acrylamide]	82.5 nM	3.09 nM	6.23 nM
C=CC(=O)Nc1cc(Nc2nccc(-n3nc(Nc4ccccn4)c4ccccc43)n2)c(OC)cc1N(C)CCN(C)C [Example 58, N-(5-(4-(3-(Pyridin-2-ylamino)-1H-indazol-1-yl)pyrimidin-2-ylamino)-2-(N-(2-(dimethylamino)ethyl)-N-methylamino)-4-methoxyphenyl) acrylamide]	1.46 nM	1.5 nM	2.36 nM
C=CC(=O)Nc1cc(Nc2nccc(-n3nc(N4CCCC4)c4ccccc43)n2)c(OC)cc1N(C)CCN(C)C [Example 59, N-(5-(4-(3-(Pyrrolidin-1-yl)-1H-indazol-1-yl)pyrimidin-2-ylamino)-2-(N-(2-(dimethylamino)ethyl)-N-methylamino)-4-methoxyphenyl) acrylamide]	716 nM	19.7 nM	8.45 nM
C=CC(=O)Nc1cc(Nc2nccc(-n3nc(N(C)CC)c4ccccc43)n2)c(OC)cc1N(C)CCN(C)C [Example 60, N-(5-(4-(3-(N-Ethyl-N-methylamino)-1H-indazol-1-yl)pyrimidin-2-ylamino)-2-(N-(2-(dimethylamino)ethyl)-N-methylamino)-4-methoxyphenyl) acrylamide]	545 nM	11.2 nM	8.1 nM
C=CC(=O)Nc1cc(Nc2nccc(-n3cc(-c4c[nH]nn4)c4ccccc43)n2)c(OC)cc1N(C)CCN(C)C [Example 61, N-(5-(4-(3-(1H-1,2,3-Triazol-4-yl)-1H-indol-1-yl)pyrimidin-2-ylamino)-2-(N-(2-(dimethylamino)ethyl)-N-methylamino)-4-methoxyphenyl) acrylamide]	1070 nM	29.5 nM	94 nM
C=CC(=O)Nc1cc(Nc2nccc(-n3cc(S(=O)(=O)NC)c4ccccc43)n2)c(OC)cc1N(C)CCN(C)C [Example 62]	43.9 nM	0.94 nM	2.24 nM
C=CC(=O)Nc1cc(Nc2ncc(Cl)c(-c3cnc(NC)c(C(C)=O)c3)n2)c(OC)cc1N(C)CCN(C)C [Example 63]	528 nM	5.79 nM	3.03 nM
C=CC(=O)Nc1cc(Nc2nccc(-c3ccc(C(N)=O)c4[nH]ccc34)n2)c(OC)cc1N(C)CCN(C)C [Example 64, 4-(2-(5-Acrylamido-4-((2-(dimethylamino)ethyl)(methyl)amino)-2-methoxyphenylamino)pyrimidin-4-yl)-1H-indole-7-carboxamide]	426 nM	5.65 nM	7.96 nM
C=CC(=O)Nc1cc(Nc2nccc(-n3nc(NC4CCOC4)c4ccccc43)n2)c(OC)cc1N(C)CCN(C)C (stereo not drawn) [Example 65, N-(5-(4-(3-(Tetrahydrofuran-3-ylamino)-1H-indazol-1-yl)pyrimidin-2-ylamino)-2-(N-(2-(dimethylamino)ethyl)-N-methylamino)-4-methoxyphenyl) acrylamide]	121 nM	6.46 nM	4.21 nM
C=CC(=O)Nc1cc(Nc2nccc(-n3nc(NCC4CC4)c4ccccc43)n2)c(OC)cc1N(C)CCN(C)C [Example 66, N-(5-(4-(3-(Cyclopropylmethylamino)-1H-indazol-1-yl)pyrimidin-2-ylamino)-2-((2-(dimethylamino)ethyl)(methyl)amino)-4-methoxyphenyl) acrylamide]	6.04 nM	1.96 nM	4.99 nM
C=CC(=O)Nc1cc(Nc2nccc(-c3cc(C(N)=O)c4[nH]cc(C)c4c3)n2)c(OC)cc1N(C)CCN(C)C [Example 68, 5-(2-(5-Acrylamido-4-((2-(dimethylamino)ethyl)(methyl)amino)-2-methoxyphenylamino)pyrimidin-4-yl)-3-methyl-1H-indole-7-carboxamide]	264 nM	2.37 nM	0.86 nM
